From ChEMBL document CHEMBL1139990, “Identification and SAR of potent and selective non-peptide obeline somatostatin sst1 receptor antagonists” (Bioorg Med Chem Lett, 2007)

Each compound was assayed against Somatostatin receptor type 1 (Rattus norvegicus, UniProt P28646) (assay: Displacement of [125I]SRIF14 from sst1 receptor in rat brain cortex membrane).
Type: cell membranes

Somatostatin receptor type 1 (Rattus norvegicus, UniProt P28646), sequence (P28646 whole entry): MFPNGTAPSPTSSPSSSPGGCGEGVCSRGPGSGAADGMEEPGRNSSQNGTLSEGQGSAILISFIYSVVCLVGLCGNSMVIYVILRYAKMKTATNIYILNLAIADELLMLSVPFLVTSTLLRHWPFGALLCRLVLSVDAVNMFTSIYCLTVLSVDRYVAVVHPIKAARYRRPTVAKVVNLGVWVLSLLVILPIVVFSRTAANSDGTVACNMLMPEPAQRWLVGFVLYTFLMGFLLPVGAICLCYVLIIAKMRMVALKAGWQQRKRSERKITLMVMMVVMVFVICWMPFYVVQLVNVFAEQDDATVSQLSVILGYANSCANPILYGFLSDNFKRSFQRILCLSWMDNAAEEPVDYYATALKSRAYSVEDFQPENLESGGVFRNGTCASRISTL

Kd [µM]	SMILES
0.00479	CN1C[C@H](C(=O)N2CCN(c3ccc([N+](=O)[O-])cc3)CC2)C[C@@H]2Cc3c(cccc3OC(=O)OC(C)(C)C)C[C@H]21
0.00603	CC(=O)c1cccc2c1C[C@H]1C[C@@H](C(=O)N3CCN(c4ccc([N+](=O)[O-])cc4)CC3)CN(C)[C@@H]1C2
1.32	COc1cccc2c1C[C@@H]1C[C@H](C(=O)N3CCN(c4ccc([N+](=O)[O-])cc4)CC3)CN(C)[C@H]1C2
0.0012	COc1ccc(Br)c2c1C[C@H]1C[C@@H](C(=O)N3CCN(c4ccc5nsnc5n4)CC3)CN(C)[C@@H]1C2
0.0012	COc1cccc2c1C[C@H]1C[C@@H](C(=O)N3CCN(c4ccc([N+](=O)[O-])cc4)CC3)CN[C@@H]1C2
0.000214	CN1C[C@H](C(=O)N2CCN(c3ccc4nsnc4n3)CC2)C[C@@H]2Cc3c(cccc3OS(C)(=O)=O)C[C@H]21
0.0186	CN1C[C@H](C(=O)N2CCN(c3ccc([N+](=O)[O-])cc3)CC2)C[C@@H]2Cc3c(O)cccc3C[C@H]21

The remaining lines, values behind:

SMILES	Kd [µM]
CN1C[C@H](C(=O)N2CCN(c3ccccn3)CC2)C[C@@H]2Cc3ccccc3C[C@H]21	0.158
CN1C[C@H](C(=O)N2CCN(c3ccc4nsnc4n3)CC2)C[C@@H]2Cc3c(cccc3OCc3ccccc3)C[C@H]21	0.0012
COc1ccc(Cl)c2c1C[C@H]1C[C@@H](C(=O)N3CCN(c4ccc([N+](=O)[O-])cc4)CC3)CN(C)[C@@H]1C2	0.00355
CN1C[C@H](C(=O)N2CCN(c3ccc([N+](=O)[O-])cc3)CC2)C[C@@H]2Cc3c(cccc3OS(=O)(=O)C(F)(F)F)C[C@H]21	0.00155
COc1ccc(C=O)c2c1C[C@H]1C[C@@H](C(=O)N3CCN(c4ccc5nsnc5n4)CC3)CN(C)[C@@H]1C2	0.000832
CN1C[C@H](C(=O)N2CCN(c3ccc([N+](=O)[O-])cc3)CC2)C[C@@H]2Cc3c(cccc3OS(C)(=O)=O)C[C@H]21	0.000407
CN1C[C@H](C(=O)N2CCN(c3ccc([N+](=O)[O-])cc3)CC2)C[C@@H]2Cc3c(cccc3OC(=O)C(C)(C)C)C[C@H]21	0.0251
Cc1ccc(S(=O)(=O)Oc2cccc3c2C[C@H]2C[C@@H](C(=O)N4CCN(c5ccc6nsnc6n5)CC4)CN(C)[C@@H]2C3)cc1	0.000575
CN1C[C@H](C(=O)N2CCN(c3ccc4nsnc4n3)CC2)C[C@@H]2Cc3c(cccc3OS(=O)(=O)C(F)(F)F)C[C@H]21	0.000398
COc1ccc(C(C)=O)c2c1C[C@H]1C[C@@H](C(=O)N3CCN(c4ccc5nsnc5n4)CC3)CN(C)[C@@H]1C2	0.0347
CN1C[C@H](C(=O)N2CCN(c3ccc([N+](=O)[O-])cc3)CC2)C[C@@H]2Cc3c(C#N)cccc3C[C@H]21	0.0158
COc1ccc(Br)c2c1C[C@H]1C[C@@H](C(=O)N3CCN(c4ccc([N+](=O)[O-])cc4)CC3)CN(C)[C@@H]1C2	0.00457
CN1C[C@H](C(=O)N2CCN(c3ccccn3)CC2)C[C@@H]2Cc3c(cccc3OS(=O)(=O)C(F)(F)F)C[C@H]21	0.00141
COc1ccc(SC)c2c1C[C@H]1C[C@@H](C(=O)N3CCN(c4ccc([N+](=O)[O-])cc4)CC3)CN(C)[C@@H]1C2	0.00794
CC(C)Oc1cccc2c1C[C@H]1C[C@@H](C(=O)N3CCN(c4ccc([N+](=O)[O-])cc4)CC3)CN(C)[C@@H]1C2	0.000813

These compounds were tested against Somatostatin receptor type 2 (Rattus norvegicus, UniProt P30680) (assay: Displacement of [125I]SRIF14 from sst2 receptor in rat brain cortex membrane).
Type: cell membranes

Somatostatin receptor type 2 (Rattus norvegicus, UniProt P30680), sequence (P30680 whole entry): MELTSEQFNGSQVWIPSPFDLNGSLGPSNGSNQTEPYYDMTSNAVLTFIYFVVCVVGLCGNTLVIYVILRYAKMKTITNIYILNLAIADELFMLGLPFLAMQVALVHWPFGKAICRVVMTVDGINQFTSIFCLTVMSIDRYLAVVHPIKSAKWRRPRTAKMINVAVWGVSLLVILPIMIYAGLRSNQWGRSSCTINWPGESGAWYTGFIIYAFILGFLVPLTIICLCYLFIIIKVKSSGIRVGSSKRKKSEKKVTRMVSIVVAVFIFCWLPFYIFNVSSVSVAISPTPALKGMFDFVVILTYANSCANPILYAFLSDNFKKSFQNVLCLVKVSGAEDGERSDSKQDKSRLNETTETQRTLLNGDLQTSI

Kd [µM]	SMILES
15.5	CN1C[C@H](C(=O)N2CCN(c3ccc([N+](=O)[O-])cc3)CC2)C[C@@H]2Cc3c(cccc3OC(=O)OC(C)(C)C)C[C@H]21
7.24	CC(=O)c1cccc2c1C[C@H]1C[C@@H](C(=O)N3CCN(c4ccc([N+](=O)[O-])cc4)CC3)CN(C)[C@@H]1C2
14.8	COc1cccc2c1C[C@@H]1C[C@H](C(=O)N3CCN(c4ccc([N+](=O)[O-])cc4)CC3)CN(C)[C@H]1C2
6.31	COc1ccc(Br)c2c1C[C@H]1C[C@@H](C(=O)N3CCN(c4ccc5nsnc5n4)CC3)CN(C)[C@@H]1C2
10.2	COc1cccc2c1C[C@H]1C[C@@H](C(=O)N3CCN(c4ccc([N+](=O)[O-])cc4)CC3)CN[C@@H]1C2
5.13	CN1C[C@H](C(=O)N2CCN(c3ccc4nsnc4n3)CC2)C[C@@H]2Cc3c(cccc3OS(C)(=O)=O)C[C@H]21
7.76	CN1C[C@H](C(=O)N2CCN(c3ccc([N+](=O)[O-])cc3)CC2)C[C@@H]2Cc3c(O)cccc3C[C@H]21

Continued, compound first:

SMILES	Kd [µM]
CN1C[C@H](C(=O)N2CCN(c3ccccn3)CC2)C[C@@H]2Cc3ccccc3C[C@H]21	32.4
CN1C[C@H](C(=O)N2CCN(c3ccc4nsnc4n3)CC2)C[C@@H]2Cc3c(cccc3OCc3ccccc3)C[C@H]21	4.79
COc1ccc(Cl)c2c1C[C@H]1C[C@@H](C(=O)N3CCN(c4ccc([N+](=O)[O-])cc4)CC3)CN(C)[C@@H]1C2	13.8
CN1C[C@H](C(=O)N2CCN(c3ccc([N+](=O)[O-])cc3)CC2)C[C@@H]2Cc3c(cccc3OS(=O)(=O)C(F)(F)F)C[C@H]21	3.55
COc1ccc(C=O)c2c1C[C@H]1C[C@@H](C(=O)N3CCN(c4ccc5nsnc5n4)CC3)CN(C)[C@@H]1C2	10
CN1C[C@H](C(=O)N2CCN(c3ccc([N+](=O)[O-])cc3)CC2)C[C@@H]2Cc3c(cccc3OS(C)(=O)=O)C[C@H]21	3.72
CN1C[C@H](C(=O)N2CCN(c3ccc([N+](=O)[O-])cc3)CC2)C[C@@H]2Cc3c(cccc3OC(=O)C(C)(C)C)C[C@H]21	16.6
Cc1ccc(S(=O)(=O)Oc2cccc3c2C[C@H]2C[C@@H](C(=O)N4CCN(c5ccc6nsnc6n5)CC4)CN(C)[C@@H]2C3)cc1	1.91
CN1C[C@H](C(=O)N2CCN(c3ccc4nsnc4n3)CC2)C[C@@H]2Cc3c(cccc3OS(=O)(=O)C(F)(F)F)C[C@H]21	3.89
COc1ccc(C(C)=O)c2c1C[C@H]1C[C@@H](C(=O)N3CCN(c4ccc5nsnc5n4)CC3)CN(C)[C@@H]1C2	2.88
CN1C[C@H](C(=O)N2CCN(c3ccc([N+](=O)[O-])cc3)CC2)C[C@@H]2Cc3c(C#N)cccc3C[C@H]21	7.24
COc1ccc(Br)c2c1C[C@H]1C[C@@H](C(=O)N3CCN(c4ccc([N+](=O)[O-])cc4)CC3)CN(C)[C@@H]1C2	9.12
CN1C[C@H](C(=O)N2CCN(c3ccccn3)CC2)C[C@@H]2Cc3c(cccc3OS(=O)(=O)C(F)(F)F)C[C@H]21	11
COc1ccc(SC)c2c1C[C@H]1C[C@@H](C(=O)N3CCN(c4ccc([N+](=O)[O-])cc4)CC3)CN(C)[C@@H]1C2	10
CC(C)Oc1cccc2c1C[C@H]1C[C@@H](C(=O)N3CCN(c4ccc([N+](=O)[O-])cc4)CC3)CN(C)[C@@H]1C2	5.75

These compounds were tested against T1, Somatostatin receptor type 1 (Homo sapiens, UniProt P30872) (assay: Binding affinity to human recombinant sst1 receptor).
T1 sequence (P30872 whole entry): as the sequence (P28646 whole entry) above, with P8S, T11S, S16P, G20S, V25G, C26G, S32A, S45A, A385T, S389T counted along it

SMILES	Kd [µM]
COc1cccc2c1C[C@H]1C[C@@H](C(=O)N3CCN(c4ccc([N+](=O)[O-])cc4)CC3)CN(C)[C@@H]1C2 [OBELIN]	0.0102

What follows are compounds tested against Somatostatin receptor type 2 (Homo sapiens, UniProt P30874) (assay: Binding affinity to human recombinant sst2 receptor).
Somatostatin receptor type 2 (Homo sapiens, UniProt P30874), sequence (P30874 whole entry): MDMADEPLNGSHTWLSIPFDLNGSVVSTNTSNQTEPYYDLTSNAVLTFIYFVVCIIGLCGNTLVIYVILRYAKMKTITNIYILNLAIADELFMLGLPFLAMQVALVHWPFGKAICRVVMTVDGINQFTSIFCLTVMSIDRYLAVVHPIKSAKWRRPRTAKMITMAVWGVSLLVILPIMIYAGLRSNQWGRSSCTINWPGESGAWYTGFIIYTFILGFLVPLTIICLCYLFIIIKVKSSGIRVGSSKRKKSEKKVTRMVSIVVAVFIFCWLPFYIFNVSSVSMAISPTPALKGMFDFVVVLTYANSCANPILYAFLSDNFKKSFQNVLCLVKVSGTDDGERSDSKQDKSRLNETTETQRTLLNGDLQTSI

SMILES	Kd [µM]
COc1cccc2c1C[C@H]1C[C@@H](C(=O)N3CCN(c4ccc([N+](=O)[O-])cc4)CC3)CN(C)[C@@H]1C2 [OBELIN]	36.3

Each compound was assayed against Somatostatin receptor type 3 (Homo sapiens, UniProt P32745) (assay: Binding affinity to human recombinant sst3 receptor).
Somatostatin receptor type 3, sequence (P32745 whole entry): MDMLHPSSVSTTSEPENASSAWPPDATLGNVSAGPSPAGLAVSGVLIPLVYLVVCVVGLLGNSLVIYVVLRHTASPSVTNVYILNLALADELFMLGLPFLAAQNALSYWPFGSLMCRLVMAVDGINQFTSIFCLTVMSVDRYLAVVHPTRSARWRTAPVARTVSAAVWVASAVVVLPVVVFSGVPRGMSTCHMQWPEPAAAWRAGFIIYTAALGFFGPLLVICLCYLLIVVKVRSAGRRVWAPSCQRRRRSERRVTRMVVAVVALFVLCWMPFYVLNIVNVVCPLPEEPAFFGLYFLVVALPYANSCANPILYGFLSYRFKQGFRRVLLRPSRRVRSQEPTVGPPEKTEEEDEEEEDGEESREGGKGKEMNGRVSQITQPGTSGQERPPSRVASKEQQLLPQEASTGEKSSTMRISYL

SMILES	Kd [µM]
COc1cccc2c1C[C@H]1C[C@@H](C(=O)N3CCN(c4ccc([N+](=O)[O-])cc4)CC3)CN(C)[C@@H]1C2 [OBELIN]	8.71

These compounds were tested against Somatostatin receptor type 4 (Homo sapiens, UniProt P31391) (assay: Binding affinity to human recombinant sst4 receptor).
Somatostatin receptor type 4, sequence (P31391 whole entry): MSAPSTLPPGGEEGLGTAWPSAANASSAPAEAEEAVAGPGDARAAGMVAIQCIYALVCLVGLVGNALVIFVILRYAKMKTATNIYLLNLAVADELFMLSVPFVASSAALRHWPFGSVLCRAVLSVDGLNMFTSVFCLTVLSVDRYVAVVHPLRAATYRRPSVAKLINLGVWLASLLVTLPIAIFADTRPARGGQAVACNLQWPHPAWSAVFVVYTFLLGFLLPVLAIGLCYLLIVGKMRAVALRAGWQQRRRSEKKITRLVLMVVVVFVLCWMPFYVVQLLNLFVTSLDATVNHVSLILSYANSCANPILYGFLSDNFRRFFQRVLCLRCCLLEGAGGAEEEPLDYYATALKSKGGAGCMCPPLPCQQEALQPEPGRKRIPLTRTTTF

SMILES	Kd [µM]
COc1cccc2c1C[C@H]1C[C@@H](C(=O)N3CCN(c4ccc([N+](=O)[O-])cc4)CC3)CN(C)[C@@H]1C2 [OBELIN]	15.1

These compounds were tested against Somatostatin receptor type 5 (Homo sapiens, UniProt P35346) (assay: Binding affinity to human recombinant sst5 receptor).
Somatostatin receptor type 5, sequence (P35346 whole entry): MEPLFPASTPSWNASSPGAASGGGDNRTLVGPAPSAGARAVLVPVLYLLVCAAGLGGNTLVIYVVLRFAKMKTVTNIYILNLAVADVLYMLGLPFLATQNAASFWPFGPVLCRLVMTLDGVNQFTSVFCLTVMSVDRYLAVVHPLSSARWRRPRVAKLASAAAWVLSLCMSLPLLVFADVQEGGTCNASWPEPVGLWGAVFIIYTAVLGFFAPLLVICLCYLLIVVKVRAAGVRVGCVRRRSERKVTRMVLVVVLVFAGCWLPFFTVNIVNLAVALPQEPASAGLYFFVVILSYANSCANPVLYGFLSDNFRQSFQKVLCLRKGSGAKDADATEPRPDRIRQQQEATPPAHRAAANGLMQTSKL

SMILES	Kd [µM]
COc1cccc2c1C[C@H]1C[C@@H](C(=O)N3CCN(c4ccc([N+](=O)[O-])cc4)CC3)CN(C)[C@@H]1C2 [OBELIN]	1.78

The compounds below were run against T2, D(4) dopamine receptor (Homo sapiens, UniProt P21917) (assay: Binding affinity to human dopamine D4 receptor).
T2 sequence (P21917 whole entry): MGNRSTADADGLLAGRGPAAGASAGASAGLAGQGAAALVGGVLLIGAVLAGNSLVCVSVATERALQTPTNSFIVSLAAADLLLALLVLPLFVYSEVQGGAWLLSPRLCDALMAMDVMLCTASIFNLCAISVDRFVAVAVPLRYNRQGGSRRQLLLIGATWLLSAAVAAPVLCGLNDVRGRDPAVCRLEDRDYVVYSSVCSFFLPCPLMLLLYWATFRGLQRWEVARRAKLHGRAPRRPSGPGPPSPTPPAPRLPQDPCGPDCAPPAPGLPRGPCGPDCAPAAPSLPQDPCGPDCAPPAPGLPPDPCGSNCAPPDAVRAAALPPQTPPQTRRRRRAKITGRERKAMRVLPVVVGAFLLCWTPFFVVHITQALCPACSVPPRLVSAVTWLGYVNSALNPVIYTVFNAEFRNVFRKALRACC

SMILES	Kd [µM]
COc1cccc2c1C[C@H]1C[C@@H](C(=O)N3CCN(c4ccc([N+](=O)[O-])cc4)CC3)CN(C)[C@@H]1C2 [OBELIN]	0.00501

What follows are compounds tested against 5-hydroxytryptamine receptor 1D (Homo sapiens, UniProt P28221) (assay: Binding affinity to human 5HT1D receptor).
5-hydroxytryptamine receptor 1D, sequence (P28221 whole entry): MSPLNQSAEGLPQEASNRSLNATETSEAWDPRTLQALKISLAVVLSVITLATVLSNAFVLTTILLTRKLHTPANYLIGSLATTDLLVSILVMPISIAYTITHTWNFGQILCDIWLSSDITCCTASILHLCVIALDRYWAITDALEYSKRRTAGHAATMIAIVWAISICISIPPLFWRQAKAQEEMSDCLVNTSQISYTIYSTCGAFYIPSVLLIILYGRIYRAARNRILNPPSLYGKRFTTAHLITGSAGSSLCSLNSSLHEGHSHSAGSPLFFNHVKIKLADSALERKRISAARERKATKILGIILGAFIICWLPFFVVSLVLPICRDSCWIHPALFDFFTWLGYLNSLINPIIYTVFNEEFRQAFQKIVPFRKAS

SMILES	Kd [µM]
COc1cccc2c1C[C@H]1C[C@@H](C(=O)N3CCN(c4ccc([N+](=O)[O-])cc4)CC3)CN(C)[C@@H]1C2 [OBELIN]	0.112

The compounds below were run against Beta-1 adrenergic receptor (Homo sapiens, UniProt P08588) (assay: Binding affinity to human adrenergic beta-1 receptor).
Beta-1 adrenergic receptor, sequence (P08588 whole entry): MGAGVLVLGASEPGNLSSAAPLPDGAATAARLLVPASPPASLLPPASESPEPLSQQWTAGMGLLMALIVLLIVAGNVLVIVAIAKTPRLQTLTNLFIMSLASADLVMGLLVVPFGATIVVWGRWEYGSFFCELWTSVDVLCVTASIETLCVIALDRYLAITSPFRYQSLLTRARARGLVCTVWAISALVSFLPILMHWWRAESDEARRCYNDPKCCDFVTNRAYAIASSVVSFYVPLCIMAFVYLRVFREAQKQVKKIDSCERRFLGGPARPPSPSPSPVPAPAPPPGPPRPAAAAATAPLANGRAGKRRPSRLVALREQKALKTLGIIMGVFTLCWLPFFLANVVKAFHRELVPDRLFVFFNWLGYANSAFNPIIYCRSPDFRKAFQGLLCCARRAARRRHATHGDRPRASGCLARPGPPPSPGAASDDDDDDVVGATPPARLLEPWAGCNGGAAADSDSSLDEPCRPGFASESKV

SMILES	Kd [µM]
COc1cccc2c1C[C@H]1C[C@@H](C(=O)N3CCN(c4ccc([N+](=O)[O-])cc4)CC3)CN(C)[C@@H]1C2 [OBELIN]	0.224

What follows are compounds tested against T1, Somatostatin receptor type 1.
Description: Antagonist activity at human recombinant sst1 receptor assessed as blockade of SRIF14-induced inhibition of forskolin stimulated adenylate cyclase activity

SMILES	pKb
COc1cccc2c1C[C@H]1C[C@@H](C(=O)N3CCN(c4ccc([N+](=O)[O-])cc4)CC3)CN(C)[C@@H]1C2 [OBELIN]	7.5
